Experimental data reported in patent US9040240B2, “Arsenic assay using ELISA” (UNIVERSITE DE LORRAINE, priority 2011, dated 2015).

Key:
human = conditions: ingestion; cited from earlier work
[1] = target: T1, ArsRFlagN protein (SEQ ID NO. 9) bound to Opars1 DNA fragment (Escherichia coli, UniProt P37309); test: ELISA arsenic assay: ArsRFlagN protein remaining bound to Opars1 DNA fragment on streptavidin microplate, luminescence (CDP*); format: binding, Escherichia coli K12 strain MG1655; conditions: 60 min 25° C.
T1 construct: made in house; host or cells: Escherichia coli M15[pREP4] with plasmid pQEarsRFlagN (pQE70)
T1 sequence (P37309 with tags, fused parts or gaps): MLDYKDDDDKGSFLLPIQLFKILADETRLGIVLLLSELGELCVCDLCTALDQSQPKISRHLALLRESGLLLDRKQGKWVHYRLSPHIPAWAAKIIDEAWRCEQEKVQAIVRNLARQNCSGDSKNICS
Method: Different dilutions of arsenic solution to be assayed are added (4), the arsenic binds to the ArsR protein (5) that is separated from its site. These proteins are eliminated by washing. Only the ArsR proteins that have not bound arsenic remain attached to the DNA (6).
A specific antibody of the Flag sequence is added (7). That antibody binds the Flag sequence of the ArsR protein bound to the DNA. The antibody is coupled with an enzyme, alkaline phosphatase for example. Any antibodies not bound are eliminated by washing.
A substrate of the enzyme is added in the wells. Light is emitted when the substrate is cleaved by the enzyme (8). […] The quantity of arsenic contained in the sample is obtained by comparing the results with a standard curve.
In this example, the used DNA fragment containing the binding site of the ArsR protein is composed of 254 base pairs (SEQ ID NO. 1, called “Opars1” herein). Opars1 sequence has been obtained by PCR (DNA polymerase chain reaction) amplification using the primers Opars1L (SEQ ID NO. 2) and Opars1R (SEQ ID NO. 3). The chromosomal DNA of the Escherichia coli K12 bacteria strain MG1655 (ATCC 47076) was used as a template for the PCR amplification. Biotin was added on the nucleotide at position 5′ during synthesis of the Opars1L primer. Biotinylated Opars1 sequences, that is to say sequences with a biotin in position 5′, were thus obtained.
A “NUNC Immobilizer (trademark) Streptavidin” microplate (Nunc Streptavidin Microplate, Dominique Dutscher (ref. 056212), Brumath, France) with 96 wells with a useful volume of 100 μl each and whose surface is functionalized with streptavidin, was used. The wells of this microplate were washed three times using 300 μl of PBST solution.
A solution containing Opars1 DNA fragments was diluted in PBS solution to obtain a DNA concentration of 0.2 μM. 100 μl of that solution were placed in each well of the “NUNC Immobilizer (trademark) Streptavidin” microplate. The microplate was incubated for 60 minutes at 25° C., to enable binding of the DNA in the wells.
(§1) The unbound DNA was eliminated by three successive washes using 300 μl of PBST per well.
The ArsR protein of sequence SEQ ID NO. 4 corresponds to the protein that regulates the Ars operon of Escherichia coli K12 strain MG1655. The arsR gene of sequence SEQ ID NO. 5 coding that protein was amplified from the chromosomal DNA of that strain using the primers arsRR (SEQ ID NO. 6) and arsRL (SEQ ID NO. 7), and cloned in expression vector pQE70 (Qiagen) according to the protocol described in the document “The QiaExpressionist: A handbook for high-level expression and purification of 6×His-tagged proteins. June 2003. Fifth ed., Qiagen” [12]. A Flag sequence (SEQ ID NO. 10) was inserted in the N-terminal region of the ArsR protein and named “ArsRFlagN” (SEQ ID NO. 9). The Flag sequence is recognized by anti-Flag antibodies (Ref. A9469, Sigma Aldrich, Saint-Quentin Fallavier, France). This addition will allow detecting and assaying the ArsR protein more efficiently.
The 200 μg of ArsRFlagN proteins produced were diluted to 1/100 in PBST buffer. 100 μl of that solution were added in each of the assay wells. The microplate was incubated for 60 minutes at 25° C., to enable the attachment of the ArsRFlagN proteins on the DNA in the wells. The amount of ArsRFlagN proteins added per well was estimated at about 0.4 μg.
(§2) The unbound proteins were eliminated by three successive washes using 300 μl of PBST per well.
A DNA fragment containing the ArsR protein binding site was attached to a support in the same way as that set out in example 2 above.
A solution containing the ArsR protein was added according to the protocol presented in example 3 above, to enable the protein to bind with the DNA.
6 dilutions of arsenic solution, at 0.375 μg/L, 0.750 μg/L, 1.875 μg/L, 7.500 μg/L, 18.750 μg/L and 37.500 μg/L respectively, were prepared in PBS to provide a standard range. […]

[2] = target: T2, ArsRFlagN-6His protein (SEQ ID NO. 22) bound to Pars2Lbio/Pars2R DNA fragment (Escherichia coli, UniProt P37309); test: ELISA arsenic assay: ArsRFlagN-6His protein remaining bound to Pars2Lbio/Pars2R DNA fragment on streptavidin microplate, luminescence (CDP*); format: binding; conditions: 60 min 25° C.
T2 construct: made in house; host or cells: Escherichia coli C43(DE3) pLysS, vector pET28b(+)
T2 sequence (P37309 with tags, fused parts or gaps): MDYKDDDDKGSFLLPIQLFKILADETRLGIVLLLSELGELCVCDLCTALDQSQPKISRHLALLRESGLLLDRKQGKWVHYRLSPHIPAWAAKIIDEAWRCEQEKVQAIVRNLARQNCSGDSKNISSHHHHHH
Method: In this example, the used DNA fragment containing the binding site of the ArsRFlagN-6His protein (SEQ ID NO. 22) is composed of a fragment of 41 biotinylated bases in position 5′ (SEQ ID NO. 25, named “Pars2Lbio”) hybridized to a further DNA fragment with 33 bases (SEQ ID NO 26, named “Pars2R”). The sequences Pars2Lbio and Pars2R were obtained by chemical synthesis (Eurofins MWG Operon, Ebersberg, Germany).
The biotinylated oligonucleotide (“Pars2Lbio”) was used at a concentration of 1 to 10 nM. The complementary oligonucleotide (“Pars2R”) was added in excess to enhance formation of the double strand. It was diluted in PBST buffer (between 1 and 10 nM, ideally 5, for the biotinylated oligonucleotide; between 4 and 40 nM, ideally 20, for the complementary oligonucleotide). The mixture was heated for one minute at 65° C. to eliminate any secondary structures that could have been formed by each oligonucleotide.
A “NUNC Immobilizer (trademark) Streptavidin” microplate (Nunc Streptavidin Microplate, Dominique Dutscher (ref. 056212), Brumath, France) with 96 wells with a useful volume of 100 μl each and whose surface is functionalized with streptavidin, was used. The wells in the microplate were washed three times using of 300 μl of PBST solution.
The DNA solution was then distributed in the microplate wells (100 μl per well). The microplate was placed at 25° C. for one hour to enable binding of the DNA fragments thanks to the biotin-streptavidin affinity.
as §1
100 μl of PBSTLE solution were added in the microplate wells. The microplate was incubated for 60 minutes at 25° C. to enable non-specific binding of the milk proteins on the bottom and the walls of the well. This step limits non-specific binding of the ArsRFlagN-6His protein (SEQ ID NO. 22) and the conjugated anti-Flag antibodies (Ref. A9469, Sigma Aldrich, Saint-Quentin Fallavier, France). The unbound proteins were eliminated by three successive washes of the well using 300 μl of PBST buffer.
A solution of ArsRFlagN-6His protein (SEQ ID NO. 22) at 1 μg/ml was prepared in PBST buffer. 100 μl of this solution were added in each of the assay wells. The microplate was incubated for 60 minutes at 25° C., to enable the ArsRFlagN-6His proteins to bind with the DNA in the wells.
as §2
The DNA fragment defined in example 6 and containing the ArsR protein binding site was bound to a support in the same way as presented in example 6 above.
A solution containing the ArsRFlagN-6His protein (SEQ ID NO. 22) was added according to the protocol presented in example 7 above, to enable the protein to bind with the DNA.
5 dilutions of arsenic solution, at 0 μg/L, 2 μg/L, 3 μg/L, 4 μg/L, and 5 μg/L respectively, were prepared in PBS to provide a control sample range. 100 μl of each of these dilutions were added respectively in a microplate well.
The microplate was incubated for 60 minutes at 25° C., to enable the arsenic to bind with the ArsRFlagN-6His proteins (SEQ ID NO. 22).
The unbound ArsRFlagN-6His proteins (SEQ ID NO. 22) were eliminated by three successive washed using 300 μl of PBST per well.
100 μl of a solution of anti-Flag antibody (Ref. A9469, Sigma Aldrich, Saint-Quentin Fallavier, France), conjugated with alkaline phosphatase, were added in each wells. The antibody was previously diluted in PBST in compliance with the supplier's recommendations (dilution factor 1/500). The microplate was incubated for 60 minutes at 25° C. to enable the antibody to bind with the ArsRFlagN-6His proteins.
The unbound anti-Flag antibodies were eliminated by three successive washes using 300 μl of PBST per well.
A CDP* solution at 0.25 mM was prepared in buffer 1. 100 μl of CDP* solution were placed in the different assay wells. The light emitted was immediately measured using a luminometer (LumiStar, BMG Lab Technologies).

[3] = Storage stability of purified ArsRFlagN-6His protein; format: physicochemical
Method: The ArsRFlagN-6His protein (SEQ ID NO. 22) was purified by affinity chromatography (IMAC). An Ni-NTA column was balanced with PBS buffer+10 mM of imidazole. The clear lysate was deposited on the column. The buffer was eluted by gravity. The column was firstly washed using PBS buffer+10 mM of imidazole (10 column volumes) and secondly using PBS buffer+20 mM of imidazole. The ArsR protein was eluted using an imidazole gradient in PBS buffer (PBS buffer with increasing concentrations of imidazole: 30 to 400 mM). The fractions collected were analysed (SDS-PAGE gel). Fractions that contained the greatest quantity of protein were stored at 4° C. (3 ml of PBS buffer, imidazole 300 mM, pH 7.5). ArsR protein concentration was of 1 mg/ml. The protein is stable for 15 days at 4° C. It can be stored for several weeks at lower temperatures (−20 and −80° C.) in the presence of a cryoprotector (glycerol at 50%, volume/volume).

[AsH3] [arsenic]
amount of arsenic ingested causing acute intoxication (human): 1 to 2 mg/kg/day

arsenite [AsIII]
Luminescence value (L) ([1]; AsIII 0.005 μM (0.375 μg/L)): 6,426 | logL ([1]; AsIII 0.005 μM (0.375 μg/L)): 3.81 | Luminescence value (L) ([1]; AsIII 0.01 μM (0.750 μg/L)): 5,808 | logL ([1]; AsIII 0.01 μM (0.750 μg/L)): 3.76 | Luminescence value (L) ([1]; AsIII 0.025 μM (1.875 μg/L)): 5,023 | logL ([1]; AsIII 0.025 μM (1.875 μg/L)): 3.70 | Luminescence value (L) ([1]; AsIII 0.100 μM (7.500 μg/L)): 4,422 | logL ([1]; AsIII 0.100 μM (7.500 μg/L)): 3.65 | Luminescence value (L) ([1]; AsIII 0.250 μM (18.750 μg/L)): 3,776 | logL ([1]; AsIII 0.250 μM (18.750 μg/L)): 3.58 | Luminescence value (L) ([1]; AsIII 0.500 μM (37.500 μg/L)): 2,831 | logL ([1]; AsIII 0.500 μM (37.500 μg/L)): 3.45 | Luminescence value (L) ([2]; AsIII 0.027 μM (2 μg/L)): 4,710 | logL ([2]; AsIII 0.027 μM (2 μg/L)): 3.6730 | Luminescence value (L) ([2]; AsIII 0.040 μM (3 μg/L)): 4,457 | logL ([2]; AsIII 0.040 μM (3 μg/L)): 3.6490 | Luminescence value (L) ([2]; AsIII 0.053 μM (4 μg/L)): 4,061 | logL ([2]; AsIII 0.053 μM (4 μg/L)): 3.6086 | Luminescence value (L) ([2]; AsIII 0.067 μM (5 μg/L)): 3,906 | logL ([2]; AsIII 0.067 μM (5 μg/L)): 3.5917

B1: ArsRFlagN-6His protein: recombinant E. coli ArsR regulator protein with N-terminal Flag peptide and polyhistidine tail (protein)
chain: T2 sequence (P37309 with tags, fused parts or gaps)
modifications: ArsRFlagN-6His protein
notes: recombinant E. coli ArsR regulator protein with N-terminal Flag peptide and polyhistidine tail
time the protein is stable ([3]; 4° C., PBS buffer, imidazole 300 mM, pH 7.5, 1 mg/ml): 15 days | time the protein can be stored ([3]; −20 and −80° C., in the presence of glycerol at 50% (volume/volume)): several weeks
